Laboratory results reported in US6525099B1, “N-substituted sulfonamide derivatives” (Eli Lilly and Company, priority 1998, dated 2003).

Experiments:
human GluR4B receptor = biological target: T1, human GluR4B receptor (Homo sapiens, UniProt P48058); test: potentiation of glutamate receptor-mediated response in HEK cells stably expressing human GluR4B (Fluo-3 calcium fluorescence); type: cell-based; conditions: human GluR4B receptor expressed in HEK 293 cells
T1 construct: expressed in transfected cells
From the text: The ability of compounds of formula I to potentiate glutamate receptor-mediated response may be determined using fluorescent calcium indicator dyes (Molecular Probes, Eugene, Oreg., Fluo-3) and by measuring glutamate-evoked efflux of calcium into GluR4 transfected HEK293 cells, as described in more detail below.
In one test, 96 well plates containing confluent monolayers of HEK cells stably expressing human GluR4B (obtained as described in European Patent Application Publication Number EP-A1-583917) are prepared. The tissue culture medium in the wells is then discarded, and the wells are each washed once with 200 μl of buffer (glucose, 10 mM, sodium chloride, 138 mM, magnesium chloride, 1 mM, potassium chloride, 5 mM, calcium chloride, 5 mM, N-[2-hydroxyethyl]-piperazine-N-[2-ethanesulfonic acid], 10 mM, to pH 7.1 to 7.3). […]
Each test is then performed as follows. […] A second fluorescent reading is taken after 5 minutes incubation. 15 μl of 400 μM glutamate solution is then added to each well (final glutamate concentration 100 μM), and a third reading is taken. The activities of test compounds and cyclothiazide solutions are determined by subtracting the second from the third reading (fluorescence due to addition of glutamate in the presence or absence of test compound or cyclothiazide) and are expressed relative to enhance fluorescence produced by 100 μM cyclothiazide.

T1 sequence (P48058 21-902): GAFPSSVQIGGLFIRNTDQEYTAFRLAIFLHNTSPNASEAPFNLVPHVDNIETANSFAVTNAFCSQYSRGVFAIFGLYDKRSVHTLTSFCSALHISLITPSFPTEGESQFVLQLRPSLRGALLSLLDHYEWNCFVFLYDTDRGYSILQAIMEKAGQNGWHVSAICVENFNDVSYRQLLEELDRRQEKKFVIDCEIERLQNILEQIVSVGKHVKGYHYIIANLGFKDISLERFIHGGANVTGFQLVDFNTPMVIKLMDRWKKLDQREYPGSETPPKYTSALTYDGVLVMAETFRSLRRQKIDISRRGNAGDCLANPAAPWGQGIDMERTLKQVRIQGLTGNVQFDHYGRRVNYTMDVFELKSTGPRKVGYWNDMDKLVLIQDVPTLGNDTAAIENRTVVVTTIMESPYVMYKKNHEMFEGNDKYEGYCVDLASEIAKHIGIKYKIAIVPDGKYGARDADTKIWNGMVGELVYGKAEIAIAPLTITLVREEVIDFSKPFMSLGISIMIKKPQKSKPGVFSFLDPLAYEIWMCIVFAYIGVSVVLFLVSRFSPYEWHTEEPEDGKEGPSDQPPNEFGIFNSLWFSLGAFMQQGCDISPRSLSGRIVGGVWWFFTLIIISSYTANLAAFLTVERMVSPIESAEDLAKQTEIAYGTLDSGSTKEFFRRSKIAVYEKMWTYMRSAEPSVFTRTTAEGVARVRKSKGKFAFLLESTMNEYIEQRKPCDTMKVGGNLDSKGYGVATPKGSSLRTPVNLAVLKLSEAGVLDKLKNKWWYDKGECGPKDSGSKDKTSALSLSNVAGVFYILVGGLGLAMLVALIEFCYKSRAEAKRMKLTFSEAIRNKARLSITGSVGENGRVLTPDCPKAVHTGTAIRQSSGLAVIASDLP

melting point	SMILES	potentiation of agonist-induced excitability (human GluR4B receptor)
	NS(=O)(=O)c1cc2c(cc1Cl)NC(C1CC3C=CC1C3)NS2(=O)=O (stereo not drawn) [cyclothiazide]	potentiate agonist-induced excitability of human GluR4B receptor
82 to 84 °C	CC(C)(C)c1ccc(C2(CNS(=O)(=O)C(F)(F)F)CC2)cc1	
87 to 89.5 °C	CC(C)S(=O)(=O)NCC1(c2ccc(C(C)(C)C)cc2)CC1	
